Data published in patent EP1145714A1, “DRUGS” (Takeda Chemical Industries, Ltd., priority 1998, dated 2000).

Test system: acute and delayed vomiting induced by cisplatin in ferrets
Experiment: Acute and delayed vomiting induced by cisplatin in ferrets, oral dosing once or twice daily
Type: in vivo
Details: cisplatin 5 mg/kg i.p.
Procedure: Male 4 to 6 ferrets (1.2 to 2.2 kg) per one group were used. Cisplatin was intraperitoneally given at 5 mg/5ml/kg. 30 minutes prior to cisplatin administration and 24 and 48 hours after cisplatin administration, predetermined doses of the compound No. 3 were orally given in case of dosing once daily. 30 minutes prior to cisplatin administration and 12, 24, 36, 48 and 60 hours after cisplatin administration, predetermined doses of the compound No. 3 were orally given in case of dosing twice daily. 30 minutes prior to the dosing of the compound No. 3, a small amount of a feed was given to the animals in any of the cases. Similarly, a predetermined volume of 0.5 % methyl cellulose solution was similarly given orally to a control animal group under no fasting. A predetermined dose of ondansetron was orally given to the animals under fasting. To a control animal group of ondansetron, a predetermined volume of physiological saline was orally given to the animals under fasting. The frequency of vomiting was counted in number, up to 72 hours after cisplatin administration.
The compound No. 3 was suspended in 0.5 % methyl cellulose solution, for oral dosing at predetermined doses at a ratio of 1 ml per 1 kg body weight. An injection of ondansetron at 0.2 w/v % concentration was orally given at a predetermined volume. Additionally, 0.5 % methyl cellulose solution was orally given at a ratio of 1 ml per 1 kg body weight, while physiological saline was orally given at a ratio of 0.5 to 1.5 ml per 1 kg body weight. The data relating to the frequency of vomiting, the time period (latency) until first vomiting and the time period from the occurrence of vomiting to the termination thereof were statistically analyzed by the Dunnett test, with reference to the difference from the control group.
The acute vomiting suppression ratio, delayed vomiting suppression ratio and total vomiting suppression ratio were calculated by the following formula. [Frequency of retching or vomiting in control] - [Frequency of retching or vomiting in animals dosed with compound No. 3] / [Frequency of retching or vomiting in control] x 100 (%) [formula]

[1] = 0.1 mg/kg × 2 p.o., twice daily
[2] = 0.3 mg/kg × 2 p.o., twice daily
[3] = 1 mg/kg p.o. twice daily, listed as compound No. 3
[4] = 3 mg/kg p.o. twice daily, listed as compound No. 3
[5] = 10 mg/kg p.o. once daily, listed as compound No. 3

Cc1ccc(-c2c3n(c(=O)c4ncccc24)CC[C@@H](C)CN(Cc2cc(C(F)(F)F)cc(C(F)(F)F)c2)C3=O)cc1 [Cpd. No.3, (9R)-7-[3,5-bis(trifluoromethyl)benzyl]-6,7,8,9,10,11-hexahydro-9-methyl-5-(4-methylphenyl)-6,13-dioxo-13H-[1,4]diazocino[2,1-g][1,7]naphthylidine]
On days 1-2(24-48 hours): frequency of retching and vomiting (mean ± SD) [1]: 222.0 ± 20.7 a
On days 1-2(24-48 hours): number of ferrets with vomiting/ number of tested ferrets [1]: 4/4
Total frequency of retching and vomiting (on days 0-2; 0-72 hours) [1]: 248.0 ± 10.7 a
Acute vomiting suppression ratio (0 to 24 hours after cisplatin dosing) (0.3 mg/kg p.o. twice daily): 100 % NS
Delayed vomiting suppression ratio (24 to 72 hours after cisplatin dosing) (0.3 mg/kg p.o. twice daily): 41 % b
Total vomiting suppression ratio (0 to 72 hours after cisplatin dosing) (0.3 mg/kg p.o. twice daily): 46 % b
Duration (in hour; mean ± SD) [2]: 31.1 ± 1.9 a hour
Latency (in hour; mean ± SD) [2]: 34.5 ± 3.4 b hour
On day 0 (0-24 hours): frequency of retching and vomiting (mean ± SD) [2]: 0
On day 0 (0-24 hours): number of ferrets with vomiting/ number of tested ferrets [2]: 0/4
On days 1-2(24-48 hours): frequency of retching and vomiting (mean ± SD) [2]: 209.3 ± 14.0 b
On days 1-2(24-48 hours): number of ferrets with vomiting/ number of tested ferrets [2]: 4/4
Total frequency of retching and vomiting (on days 0-2; 0-72 hours) [2]: 209.3 ± 14.0 b
Acute vomiting suppression ratio (0 to 24 hours after cisplatin dosing) (1 mg/kg p.o. twice daily): 0 % NS
Delayed vomiting suppression ratio (24 to 72 hours after cisplatin dosing) (1 mg/kg p.o. twice daily): 70 % a
Total vomiting suppression ratio (0 to 72 hours after cisplatin dosing) (1 mg/kg p.o. twice daily): 54 % b
Delayed vomiting suppression ratio (24 to 72 hours after cisplatin dosing) [3]: 70%
Total vomiting suppression ratio (0 to 72 hours after cisplatin dosing) [3]: 54%
Duration (in hour; mean ± SD) (1 mg/kg × 2 p.o., twice daily): 64.8 ± 2.2 h
Latency (in hour; mean ± SD) (1 mg/kg × 2 p.o., twice daily): 3.4 ± 1.1 h
On day 0 (0-24 hours): frequency of retching and vomiting (mean ± SD) (1 mg/kg × 2 p.o., twice daily): 71.8 ± 20.6
On day 0 (0-24 hours): number of ferrets with vomiting/ number of tested ferrets (1 mg/kg × 2 p.o., twice daily): 4/4
On days 1-2(24-48 hours): frequency of retching and vomiting (mean ± SD) (1 mg/kg × 2 p.o., twice daily): 108.0 ± 9.6 b
On days 1-2(24-48 hours): number of ferrets with vomiting/ number of tested ferrets (1 mg/kg × 2 p.o., twice daily): 4/4
Total frequency of retching and vomiting (on days 0-2; 0-72 hours) (1 mg/kg × 2 p.o., twice daily): 179.8 ± 21.0 b
Delayed vomiting suppression ratio (0 to 72 hours after cisplatin dosing) (3 mg/kg p.o. once daily, listed as compound No. 3): 42%
Acute vomiting suppression ratio (0 to 24 hours after cisplatin dosing) (3 mg/kg p.o. twice daily): 82 % NS
Delayed vomiting suppression ratio (24 to 72 hours after cisplatin dosing) (3 mg/kg p.o. twice daily): 59 % b
Total vomiting suppression ratio (0 to 72 hours after cisplatin dosing) (3 mg/kg p.o. twice daily): 61 % b
Acute vomiting suppression ratio (0 to 24 hours after cisplatin dosing) [4]: 82%
Delayed vomiting suppression ratio (24 to 72 hours after cisplatin dosing) [4]: 59%
Acute vomiting suppression ratio (0 to 24 hours after cisplatin dosing) (3 mg/kg p.o., once daily): 48 % NS
Delayed vomiting suppression ratio (0 to 72 hours after cisplatin dosing) (3 mg/kg p.o., once daily): 42 % a
Delayed vomiting suppression ratio (24 to 72 hours after cisplatin dosing) (3 mg/kg p.o., once daily): 40 % NS
Duration (in hour; mean ± SD) (3 mg/kg p.o., once daily): 61.2 ± 1.2 h
Latency (in hour; mean ± SD) (3 mg/kg p.o., once daily): 7.8 ± 1.1 h
On day 0 (0-24 hours): frequency of retching and vomiting (mean ± SD) (3 mg/kg p.o., once daily): 56.8 ± 18.4
On day 0 (0-24 hours): number of ferrets with vomiting/ number of tested ferrets (3 mg/kg p.o., once daily): 4/4
On days 1-2(24-48 hours): frequency of retching and vomiting (mean ± SD) (3 mg/kg p.o., once daily): 209.5±23.6
On days 1-2(24-48 hours): number of ferrets with vomiting/ number of tested ferrets (3 mg/kg p.o., once daily): 4/4
Total frequency of retching and actual vomiting (on days 0-2; 0-72 hours) (3 mg/kg p.o., once daily): 266.3 ± 20.6 a
Duration (in hour; mean ± SD) (3 mg/kg × 2 p.o., twice daily): 40.9 ± 13.9 h
Latency (in hour; mean ± SD) (3 mg/kg × 2 p.o., twice daily): 25.8 ± 10.7 h
On day 0 (0-24 hours): frequency of retching and vomiting (mean ± SD) (3 mg/kg × 2 p.o., twice daily): 6.0 ± 4.5
On day 0 (0-24 hours): number of ferrets with vomiting/ number of tested ferrets (3 mg/kg × 2 p.o., twice daily): 2/4
On days 1-2(24-48 hours): frequency of retching and vomiting (mean ± SD) (3 mg/kg × 2 p.o., twice daily): 145.0 ± 50.5 b
On days 1-2(24-48 hours): number of ferrets with vomiting/ number of tested ferrets (3 mg/kg × 2 p.o., twice daily): 4/4
Total frequency of retching and vomiting (on days 0-2; 0-72 hours) (3 mg/kg × 2 p.o., twice daily): 150.8 ± 53.1 b
Acute vomiting suppression ratio (0 to 24 hours after cisplatin dosing) [5]: 83%
Delayed vomiting suppression ratio (24 to 72 hours after cisplatin dosing) [5]: 65%
Acute vomiting suppression ratio (0 to 24 hours after cisplatin dosing) (10 mg/kg p.o., once daily): 83 % NS
Delayed vomiting suppression ratio (0 to 72 hours after cisplatin dosing) (10 mg/kg p.o., once daily): 70 % b
Delayed vomiting suppression ratio (24 to 72 hours after cisplatin dosing) (10 mg/kg p.o., once daily): 65 % a
Duration (in hour; mean ± SD) (10 mg/kg p.o., once daily): 51.4 ± 7.0 a hour
Effect on delayed vomiting induced by cisplatin (in words) (10 mg/kg p.o., once daily): prominently suppressed
Latency (in hour; mean ± SD) (10 mg/kg p.o., once daily): 16.2 ± 5.6 h
On day 0 (0-24 hours): frequency of retching and vomiting (mean ± SD) (10 mg/kg p.o., once daily): 19.0 ± 11.0 b
On day 0 (0-24 hours): number of ferrets with vomiting/ number of tested ferrets (10 mg/kg p.o., once daily): 3/4
On days 1-2(24-48 hours): frequency of retching and vomiting (mean ± SD) (10 mg/kg p.o., once daily): 120.5 ± 5.0 a
On days 1-2(24-48 hours): number of ferrets with vomiting/ number of tested ferrets (10 mg/kg p.o., once daily): 4/4
Total frequency of retching and actual vomiting (on days 0-2; 0-72 hours) (10 mg/kg p.o., once daily): 139.5 ± 8.3 b
